SMILES strings stand for the structures.

The values below come from patent publication US20120202690A1, “HERBICIDAL COMPOUNDS” (SYNGENTA LIMITED, priority 2009, published 2012).

Type in all cases: in vivo
For assay [1], the system named is Ipomoea hederaceae (IPOHE). Put plainly: Pre-emergence biological efficacy, glasshouse, 1000 g/ha, evaluated after 13 days (100=total damage to plant; 0=no damage to plant). Conditions: rate 1,000 g/ha; for pest or weed control at 1000 g/ha: Ipomoea, 312 h, read-out: Percentage damage caused to weed species, pre-emergence, IPOHE. The method, boiled down:
(§1)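 Pot-sown in standard soil; glasshouse 24/16° C. (day/night), 14 h light, 65% humidity; watered twice daily.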

The test system of assay [2] is Alopecurus myosuroides (ALOMY). The description is as above. The following applies: rate 1,000 g/ha; for pest or weed control at 1000 g/ha: Alopecurus myosuroides, 312 h, read-out: Percentage damage caused to weed species, pre-emergence, ALOMY. In a few lines:
as §1

Assay [3] has as its system Setaria faberi (SETFA). The assay is described as above. Conditions: rate 1,000 g/ha; for pest or weed control at 1000 g/ha: Setaria faberi, 312 h, read-out: Percentage damage caused to weed species, pre-emergence, SETFA. The method, boiled down: as §1
The subject of assay [4] is Solanum nigrum (SOLNI). The assay is described as above. Conditions: rate 1,000 g/ha; for pest or weed control at 1000 g/ha: Solanum nigrum, 312 h, read-out: Percentage damage caused to weed species, pre-emergence, SOLNI. In a few lines: as §1
Assay [5] deals with Echinochloa crus-galli (ECHCG). Described as above. Conditions: rate 1,000 g/ha; for pest or weed control at 1000 g/ha: Echinochloa crus-galli, 312 h, read-out: Percentage damage caused to weed species, pre-emergence, ECHCG. In a few lines:
as §1

The test system of assay [6] is Amaranthus retroflexus (AMARE). Described as above. The following applies: rate 1,000 g/ha; for pest or weed control at 1000 g/ha: Amaranthus retroflexus, 312 h, read-out: Percentage damage caused to weed species, pre-emergence, AMARE. In a few lines: as §1
Assay [7] has as its system Ipomoea hederaceae (IPOHE). In words: Post-emergence biological efficacy, glasshouse, 500 or 1000 g/ha, evaluated after 13 days (100=total damage to plant; 0=no damage to plant). The following applies: rate 1,000 g/ha; for pest or weed control at 1000 g/ha: Ipomoea, 312 h, read-out: Percentage damage caused to weed species, post-emergence, IPOHE. In a few lines:
(§2)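 Damage is scored on pot-grown plants, sown in standard soil and sprayed after emergence, that were held post-treatment in a glasshouse (24/16° C. day/night, 14 hours light, 65% humidity).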

The subject of assay [8] is Alopecurus myosuroides (ALOMY). The assay is described as above. Conditions: rate 1,000 g/ha; for pest or weed control at 1000 g/ha: Alopecurus myosuroides, 312 h, read-out: Percentage damage caused to weed species, post-emergence, ALOMY. In a few lines:
as §2

Assay [9] has as its system Setaria faberi (SETFA). The description is as above. Conditions: rate 1,000 g/ha; for pest or weed control at 1000 g/ha: Setaria faberi, 312 h, read-out: Percentage damage caused to weed species, post-emergence, SETFA. The method, boiled down: as §2
For assay [10], the system named is Solanum nigrum (SOLNI). The description is as above. Conditions: rate 1,000 g/ha; for pest or weed control at 1000 g/ha: Solanum nigrum, 312 h, read-out: Percentage damage caused to weed species, post-emergence, SOLNI. In a few lines: as §2
For assay [11], the system named is Echinochloa crusgaffi (ECHCG). The assay is described as above. The following applies: rate 1,000 g/ha; for pest or weed control at 1000 g/ha: Echinochloa, 312 h, read-out: Percentage damage caused to weed species, post-emergence, ECHCG. In a few lines:
as §2

For assay [12], the system named is Amaranthus retroflexus (AMARE). The assay is described as above. Conditions: rate 1,000 g/ha; for pest or weed control at 1000 g/ha: Amaranthus retroflexus, 312 h, read-out: Percentage damage caused to weed species, post-emergence, AMARE. In a few lines:
as §2

Take `C=CCOC(=O)c1nc(-c2ccc(Cl)c(OC)c2F)nc2[nH]cc(C)c12` [Compound 1-80, 2-(4-Chloro-2-fluoro-3-methoxyphenyl)-5-methyl-4-(prop-2-enyloxycarbonyl)-7H-pyrrolo[2,3-d]pyrimidine]: the pest or weed control at 1000 g/ha (in [1]; in assay [2]; in the assay with Setaria faberi (SETFA) [3]; in the assay with Solanum nigrum (SOLNI) [4]; in assay [5]; in [6]) was 0% throughout. Further, the pest or weed control at 1000 g/ha in assay [7] turned out to be 40%; in assay [8], 0%; in the assay on Setaria faberi (SETFA) [9], 0%; with Solanum nigrum (SOLNI) [10], 80%; in assay [11] it was 10%; in [12], 60%.

Consider `CCCCOCCOC(=O)c1nc(-c2ccc(Cl)c(OC)c2F)nc2[nH]cc(C)c12` [Compound 1-83, 4-[(2-n-Butoxy)-ethoxycarbonyl]-2-(4-chloro-2-fluoro-3-methoxyphenyl)-5-methy-7H-pyrrolo[2,3-d]pyrimidine], for which the pest or weed control at 1000 g/ha in assay [1] is 20%; in [2], 0%; in the assay on Setaria faberi (SETFA) [3], 0%; in the assay on Solanum nigrum (SOLNI) [4], 30%; in assay [5] it was 0%; in assay [6], 40%. In addition, the pest or weed control at 1000 g/ha in [7] was determined as 40%; in assay [8] it was 0%; with Setaria faberi (SETFA) [9], 10%; in the assay with Solanum nigrum (SOLNI) [10], 70%; in [11] it was 10%; in [12], 70%.

`CCCCOCC(C)OC(=O)c1nc(-c2ccc(Cl)c(OC)c2F)nc2[nH]cc(C)c12` (stereo not drawn) [Compound 1-84, 4-[(1-n-Butoxy)-prop-2-yloxycarbonyl]-2-(4-chloro-2-fluoro-3-methoxyphenyl)-5-methyl-7H-pyrrolo[2,3-d]pyrimidne]: the pest or weed control at 1000 g/ha in [1] is 70%; in assay [2] it was 10%; in the assay with Setaria faberi (SETFA) [3], 10%; in the assay on Solanum nigrum (SOLNI) [4] it was 40%; in [5] it was 10%; in assay [6], 20%. Also, the pest or weed control at 1000 g/ha was determined as 40% in assay [7]; 10% in assay [8]; 10% in the assay with Setaria faberi (SETFA) [9]; 70% in the assay on Solanum nigrum (SOLNI) [10]; 0% in assay [11]; 60% in assay [12].

As to `COCCOCCOC(=O)c1nc(-c2ccc(Cl)c(OC)c2F)nc2[nH]cc(C)c12` [Compound 1-85, 2-(4-Chloro-2-fluoro-3-methoxyphenyl)-4-{2-[(2-methoxy)-ethoxy]-ethoxycarbonyl}-5-methyl-7H-pyrrolo[2,3-d]pyrimidine], the pest or weed control at 1000 g/ha in assay [1] stood at 10%; in [2], 20%; in the assay with Setaria faberi (SETFA) [3] it was 0%; in the assay on Solanum nigrum (SOLNI) [4] it was 70%; in assay [5], 0%; in assay [6] it was 100%. Also, the pest or weed control at 1000 g/ha in assay [7] was found to be 40%; in assay [8] it was 10%; in the assay with Setaria faberi (SETFA) [9], 40%; with Solanum nigrum (SOLNI) [10], 90%; in assay [11], 60%; in assay [12] it was 100%.

Turning to `COc1c(Cl)ccc(-c2nc(C(=O)OCc3ccco3)c3c(C)c[nH]c3n2)c1F` [Compound 1-87, 2-(4-Chloro-2-fluoro-3-methoxyphenyl)-4-(2-furanyl-methoxycarbonyl)-5-methy-7H-pyrrolo[2,3-d]pyrimidine], the “Percentage damage caused to weed species, pre-emergence, IPOHE” value in assay [1] amounted to 10%. In addition, the “Percentage damage caused to weed species, pre-emergence, ALOMY” value in [2] is given as 0%. For the same molecule, the “Percentage damage caused to weed species, pre-emergence, SETFA” value with Setaria faberi (SETFA) [3] is 0%. Also, in the assay with Solanum nigrum (SOLNI) [4], the “Percentage damage caused to weed species, pre-emergence, SOLNI” value was found to be 20%. The “Percentage damage caused to weed species, pre-emergence, ECHCG” value in assay [5] is on record as 0%. For the same molecule, the “Percentage damage caused to weed species, pre-emergence, AMARE” value in assay [6] is given as 10%. Moreover, in [7], the “Percentage damage caused to weed species, post-emergence, IPOHE” value is 50%. Also, in [8], the “Percentage damage caused to weed species, post-emergence, ALOMY” value was 0%. Further, the “Percentage damage caused to weed species, post-emergence, SETFA” value in the assay on Setaria faberi (SETFA) [9] worked out at 10%. Moreover, the “Percentage damage caused to weed species, post-emergence, SOLNI” value in the assay on Solanum nigrum (SOLNI) [10] is given as 90%. Besides, the “Percentage damage caused to weed species, post-emergence, ECHCG” value in assay [11] is on record as 0%. The “Percentage damage caused to weed species, post-emergence, AMARE” value in [12] turned out to be 100%.

Regarding `COc1c(Cl)ccc(-c2nc(C(=O)OCC3CCCO3)c3c(C)c[nH]c3n2)c1F` (stereo not drawn) [Compound 1-88, 2-(4-Chloro-2-fluoro-3-methoxyphenyl)-5-methyl-4-(tetrahydrofuran-2-yl-methoxycarbonyl)-7H-pyrrolo[2,3-d]pyrimidine], the pest or weed control at 1000 g/ha was 10% in assay [1]; 0% in assay [2]; 0% with Setaria faberi (SETFA) [3]; 20% in the assay on Solanum nigrum (SOLNI) [4]; 10% in [5]; 10% in assay [6]. Further, the pest or weed control at 1000 g/ha in [7] was 50%; in [8] it was 10%; with Setaria faberi (SETFA) [9], 40%; with Solanum nigrum (SOLNI) [10], 70%; in [11], 10%; in [12] it was 50%.

Regarding `COC(=O)c1nc(-c2ccc(Cl)c(OC)c2F)nc2[nH]c(-c3ccccc3)c(C)c12` [Compound 1-108, 2-(4-Chloro-2-fluoro-3-methoxyphenyl)-4-methoxycarbonyl-5-methyl-6-phenyl-7H-pyrrolo[2,3-d]pyrimidine], the pest or weed control at 1000 g/ha (in assay [1]; in assay [2]; in the assay on Setaria faberi (SETFA) [3]; in the assay with Solanum nigrum (SOLNI) [4]; in assay [5]; in [6]) was 0% in each case. Further, the pest or weed control at 1000 g/ha in [7] is 50%; in assay [8], 0%; with Setaria faberi (SETFA) [9], 0%; in the assay on Solanum nigrum (SOLNI) [10] it was 30%; in [11], 0%; in assay [12], 0%.

As for `COC(=O)c1nc(-c2ccc(Cl)c(N(C)C)c2F)nc2[nH]cc(C)c12` [Compound 1-116, 2-(4-Chloro-3-dimethylamino-2-fluorophenyl)-4-methoxycarbonyl-5-methyl-7H-pyrrolo[2,3-d]pyrimidine], the pest or weed control at 1000 g/ha (in assay [1]; in assay [2]; in the assay on Setaria faberi (SETFA) [3]; with Solanum nigrum (SOLNI) [4]; in assay [5]; in assay [6]) was 0% each time. Also, the pest or weed control at 1000 g/ha in assay [7] stood at 50%; in assay [8], 0%; in the assay with Setaria faberi (SETFA) [9], 20%; in the assay with Solanum nigrum (SOLNI) [10], 40%; in [11] it was 0%; in [12] it was 50%.

`COC(=O)c1nc(-c2ccc(Cl)c(N(C)C)c2F)nc2[nH]c(C)cc12` [Compound 1-118, 2-(4-chloro-3-dimethylamino-2-fluorophenyl)-4-methoxycarbonyl-6-methyl-7H-pyrrolo[2,3-d]pyrimidine]: the pest or weed control at 1000 g/ha in assay [1] was determined as 40%; in assay [2], 0%; in the assay with Setaria faberi (SETFA) [3], 20%; in the assay on Solanum nigrum (SOLNI) [4] it was 70%; in assay [5], 10%; in [6], 40%. For the same molecule, the pest or weed control at 1000 g/ha in assay [7] amounted to 50%; in [8] it was 10%; with Setaria faberi (SETFA) [9] it was 70%; with Solanum nigrum (SOLNI) [10], 80%; in assay [11] it was 50%; in assay [12], 100%.
